For twelve compounds, IC50 results are on record in patent US10633419B2, “Immunomodulators” (BRISTOL-MYERS SQUIBB COMPANY, priority 2014, dated 2020).

Starred links: 1 amine or outer side, 2 acyl side, 3 side chain; linkers in the order of their positions; H or OH if unused. Positions of bridges follow the written chain, without caps; N, C: chain ends. Non-standard residues stand in square brackets, D forms with d. Residues, ends and D or L forms follow the SMILES beside them. *: point of attachment. Dap(Nα-HOOC(CH2)16CO)OH = O=C(O)CCCCCCCCCCCCCCCCC(=O)N[C@@H](CN*)C(=O)O; X6 = O=C(O)CCCCCCCCCCCCCCCCC(=O)N[C@@H](CCC(=O)NCCCOCCOCCOCCCN*)C(=O)O; X13 = O=C(O)CCCCCCCCCCCCCCC(=O)N[C@@H](CCC(=O)NCCCOCCOCCOCCCN*)C(=O)O; Trp(1-CH2COOH) = N[C@@H](Cc1cn(CC(=O)O)c2ccccc12)C(=O)O; X10 = O=C(O)CCCCCCCCCCCCCCC(=O)N[C@@H](CN*)C(=O)O; γGlu = O=C(O)[C@H](CCC(=O)[*:2])N[*:1]; d(cisHyp) = O=C(O)[C@H]1C[C@@H](O)CN1; βAsp = O=C(O)[C@H](CC(=O)[*:2])N[*:1]; PEG6 = NCCOCCOCCOCCOCCOCCOCCC(=O)O; Hyp = O=C(O)[C@@H]1C[C@@H](O)CN1; NMeNle = CCCC[C@H](NC)C(=O)O; NMeA = CN[C@@H](C)C(=O)O; Dab = NCC[C@H](N)C(=O)O; Dap = NC[C@H](N)C(=O)O; Sar = CNCC(=O)O

For the assay, the target named is T1, PD-L1 (Homo sapiens, UniProt Q9NZQ7).
T1 construct: hPDL1(19-239)-TVMV-His; made in house; host or cells: HEK293T
T1 sequence (Q9NZQ7 with tags, fused parts or gaps): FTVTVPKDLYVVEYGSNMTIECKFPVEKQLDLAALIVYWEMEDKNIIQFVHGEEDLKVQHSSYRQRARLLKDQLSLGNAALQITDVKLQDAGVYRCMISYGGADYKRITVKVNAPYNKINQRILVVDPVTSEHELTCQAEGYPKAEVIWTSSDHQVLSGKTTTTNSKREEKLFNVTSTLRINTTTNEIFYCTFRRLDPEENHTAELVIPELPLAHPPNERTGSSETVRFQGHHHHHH
The experiment in a line: PD-1/PD-L1 Homogenous Time-Resolved Fluorescence (HTRF) binding assay (PD-1-Ig/PD-L1-His). Conditions: inhibition of PD-1-Ig binding to PD-L1-TVMV-His; value given as range class; read-out: HTRF IC50. An outline of the steps:
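HTRF competition in dPBS with 0.1% BSA and 0.05% Tween-20: 20 nM PD-1-Ig added after 15 min compound pre-incubation with 10 nM PD-L1-His, then another 15 min. Signal (665/620 nm) after 30 min with APC anti-His (20 nM) and Eu anti-Ig (1 nM).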
One may read the IC50 as the midpoint of a concentration-inhibition curve. Turning to `CCCC[C@H]1C(=O)N(C)[C@@H](CCCC)C(=O)N[C@@H](CC(C)C)C(=O)N[C@H](C(=O)NCC(=O)N[C@@H](CC(=O)NCCCOCCOCCOCCCNC(=O)CC[C@H](NC(=O)CCCCCCCCCCCCCCCCC(=O)O)C(=O)O)C(=O)O)CSCC(=O)N[C@@H](Cc2ccc(O)cc2)C(=O)N(C)[C@@H](C)C(=O)N[C@@H](CC(N)=O)C(=O)N2CCC[C@H]2C(=O)N[C@@H](CN)C(=O)N[C@@H](CC(C)C)C(=O)N2C[C@H](O)C[C@@H]2C(=O)N[C@@H](Cc2c[nH]c3ccccc23)C(=O)N[C@@H](CCN)C(=O)N[C@@H](Cc2cn(CC(=O)O)c3ccccc23)C(=O)N1C` [Example 11160] ({CH2CO}-Y[NMeA]NP[Dap]L[d(cisHyp)]W[Dab][Trp(1-CH2COOH)][NMeNle][NMeNle]LCGD(X6)-OH; thioether N-14), the IC50 fell in the range of 100 to 1600 nM.

For `CCCC[C@H]1C(=O)N(C)[C@@H](CCCC)C(=O)N[C@@H](CC(C)C)C(=O)N[C@H](C(=O)NCCCOCCOCCOCCCNC(=O)CC[C@H](NC(=O)CCCCCCCCCCCCCCC(=O)O)C(=O)O)CSCC(=O)N[C@@H](Cc2ccc(O)cc2)C(=O)N(C)[C@@H](C)C(=O)N[C@@H](CC(N)=O)C(=O)N2CCC[C@H]2C(=O)N[C@@H](CN)C(=O)N[C@@H](CC(C)C)C(=O)N2C[C@H](O)C[C@@H]2C(=O)N[C@@H](Cc2c[nH]c3ccccc23)C(=O)N[C@@H](CCN)C(=O)N[C@@H](Cc2cn(CC(=O)O)c3ccccc23)C(=O)N1C` [Example 11161] ({CH2CO}-Y[NMeA]NP[Dap]L[d(cisHyp)]W[Dab][Trp(1-CH2COOH)][NMeNle][NMeNle]LC-X13; thioether N-14), the IC50 lay in the range of 100 to 1600 nM.

`CCCC[C@H]1C(=O)N(C)[C@@H](CCCC)C(=O)N[C@@H](CC(C)C)C(=O)N[C@H](C(=O)NCC(=O)N[C@@H](CC(=O)O)C(=O)NCCCOCCOCCOCCCNC(=O)CC[C@H](NC(=O)CCCCCCCCCCCCCCC(=O)O)C(=O)O)CSCC(=O)N[C@@H](Cc2ccc(O)cc2)C(=O)N(C)[C@@H](C)C(=O)N[C@@H](CC(N)=O)C(=O)N2CCC[C@H]2C(=O)N[C@@H](CN)C(=O)N[C@@H](CC(C)C)C(=O)N2C[C@H](O)C[C@@H]2C(=O)N[C@@H](Cc2c[nH]c3ccccc23)C(=O)N[C@@H](CCN)C(=O)N[C@@H](Cc2cn(CC(=O)O)c3ccccc23)C(=O)N1C` [Example 11162] ({CH2CO}-Y[NMeA]NP[Dap]L[d(cisHyp)]W[Dab][Trp(1-CH2COOH)][NMeNle][NMeNle]LCGD-X13; thioether N-14): the IC50 was in the range of 100 to 1600 nM.

As for `CCCC[C@H]1C(=O)N(C)[C@@H](CCCC)C(=O)N[C@@H](CC(C)C)C(=O)N[C@H](C(=O)NCC(=O)N[C@@H](CCC(=O)NCCCOCCOCCOCCCNC(=O)CC[C@H](NC(=O)CCCCCCCCCCCCCCCCC(=O)O)C(=O)O)C(=O)O)CSCC(=O)N[C@@H](Cc2ccc(O)cc2)C(=O)N(C)[C@@H](C)C(=O)N[C@@H](CC(N)=O)C(=O)N2CCC[C@H]2C(=O)N[C@@H](CN)C(=O)N[C@@H](CC(C)C)C(=O)N2C[C@H](O)C[C@@H]2C(=O)N[C@@H](Cc2c[nH]c3ccccc23)C(=O)N[C@@H](CCN)C(=O)N[C@@H](Cc2cn(CC(=O)O)c3ccccc23)C(=O)N1C` [Example 11163] ({CH2CO}-Y[NMeA]NP[Dap]L[d(cisHyp)]W[Dab][Trp(1-CH2COOH)][NMeNle][NMeNle]LCGE(X6)-OH; thioether N-14), the IC50 was in the range of 0.3 to 9.9 nM.

Take `CCCC[C@H]1C(=O)N(C)[C@@H](CCCC)C(=O)N[C@@H](CC(C)C)C(=O)N[C@H](C(=O)NCC(=O)N[C@@H](CC(=O)NCCOCCOCCOCCOCCOCCOCCC(=O)NC[C@H](NC(=O)CCCCCCCCCCCCCCC(=O)O)C(=O)O)C(=O)O)CSCC(=O)N[C@@H](Cc2ccc(O)cc2)C(=O)N(C)[C@@H](C)C(=O)N[C@@H](CC(N)=O)C(=O)N2CCC[C@H]2C(=O)N[C@@H](CN)C(=O)N[C@@H](CC(C)C)C(=O)N2C[C@H](O)C[C@@H]2C(=O)N[C@@H](Cc2c[nH]c3ccccc23)C(=O)N[C@@H](CCN)C(=O)N[C@@H](Cc2cn(CC(=O)O)c3ccccc23)C(=O)N1C` [Example 11164] ({CH2CO}-Y[NMeA]NP[Dap]L[d(cisHyp)]W[Dab][Trp(1-CH2COOH)][NMeNle][NMeNle]LCG[βAsp][PEG6]-X10; thioether N-14): the IC50 lay within 0.3 to 9.9 nM.

Consider `CCCC[C@H]1C(=O)N(C)[C@@H](CCCC)C(=O)N[C@@H](CC(C)C)C(=O)N[C@H](C(=O)NCC(=O)N[C@@H](CCC(=O)NCCOCCOCCOCCOCCOCCOCCC(=O)NC[C@H](NC(=O)CCCCCCCCCCCCCCC(=O)O)C(=O)O)C(=O)O)CSCC(=O)N[C@@H](Cc2ccc(O)cc2)C(=O)N(C)[C@@H](C)C(=O)N[C@@H](CC(N)=O)C(=O)N2CCC[C@H]2C(=O)N[C@@H](CN)C(=O)N[C@@H](CC(C)C)C(=O)N2C[C@H](O)C[C@@H]2C(=O)N[C@@H](Cc2c[nH]c3ccccc23)C(=O)N[C@@H](CCN)C(=O)N[C@@H](Cc2cn(CC(=O)O)c3ccccc23)C(=O)N1C` [Example 11165] ({CH2CO}-Y[NMeA]NP[Dap]L[d(cisHyp)]W[Dab][Trp(1-CH2COOH)][NMeNle][NMeNle]LCG[γGlu][PEG6]-X10; thioether N-14), for which the half-inhibitory concentration (IC50) lay within 0.3 to 9.9 nM.

Turning to `CCCC[C@H]1C(=O)N(C)[C@@H](CCCC)C(=O)N[C@@H](CC(C)C)C(=O)N[C@H](C(=O)NCC(=O)N[C@@H](CC(=O)O)C(=O)NCCCOCCOCCOCCCNC(=O)CC[C@H](NC(=O)CCCCCCCCCCCCCCCCC(=O)O)C(=O)O)CSCC(=O)N[C@@H](Cc2ccc(O)cc2)C(=O)N(C)[C@@H](C)C(=O)N[C@@H](CC(N)=O)C(=O)N2CCC[C@H]2C(=O)N[C@@H](CN)C(=O)N[C@@H](CC(C)C)C(=O)N2C[C@H](O)C[C@@H]2C(=O)N[C@@H](Cc2c[nH]c3ccccc23)C(=O)N[C@@H](CCN)C(=O)N[C@@H](Cc2cn(CC(=O)O)c3ccccc23)C(=O)N1C` [Example 11166] ({CH2CO}-Y[NMeA]NP[Dap]L[d(cisHyp)]W[Dab][Trp(1-CH2COOH)][NMeNle][NMeNle]LCGD-X6; thioether N-14), the half-inhibitory concentration (IC50) fell in the range of 100 to 1600 nM.

In the case of `CCCC[C@H]1C(=O)N(C)[C@@H](CCCC)C(=O)N[C@@H](CC(C)C)C(=O)C[C@H](C(=O)NCC(=O)N[C@@H](CCC(=O)O)C(=O)NCCCOCCOCCOCCCNC(=O)CC[C@H](NC(=O)CCCCCCCCCCCCCCCCC(=O)O)C(=O)O)CSCC(=O)N[C@@H](Cc2ccc(O)cc2)C(=O)N(C)[C@@H](C)C(=O)N[C@@H](CC(N)=O)C(=O)N2CCC[C@H]2C(=O)N[C@@H](CN)C(=O)N[C@@H](CC(C)C)C(=O)N2C[C@H](O)C[C@H]2C(=O)N[C@@H](Cc2c[nH]c3ccccc23)C(=O)N[C@@H](CCN)C(=O)N[C@@H](Cc2cn(CC(=O)O)c3ccccc23)C(=O)N1C` [Example 11167], the IC50 is 0.3 to 9.9 nM.

Take `CCCC[C@H]1C(=O)N(C)[C@@H](CCCC)C(=O)N[C@@H](CC(C)C)C(=O)N[C@H](C(=O)NCC(=O)NCCCOCCOCCOCCCNC(=O)CC[C@H](NC(=O)CCCCCCCCCCCCCCC(=O)O)C(=O)O)CSCC(=O)N[C@@H](Cc2ccc(O)cc2)C(=O)N(C)[C@@H](C)C(=O)N[C@@H](CC(N)=O)C(=O)N2CCC[C@@H]2C(=O)N[C@@H](CN)C(=O)N[C@@H](CC(C)C)C(=O)N2C[C@H](O)C[C@@H]2C(=O)N[C@@H](Cc2c[nH]c3ccccc23)C(=O)N[C@@H](CCN)C(=O)N[C@@H](Cc2cn(CC(=O)O)c3ccccc23)C(=O)N1C` [Example 11168] ({CH2CO}-Y[NMeA]N[dP][Dap]L[d(cisHyp)]W[Dab][Trp(1-CH2COOH)][NMeNle][NMeNle]LCG-X13; thioether N-14): the IC50 was 0.3 to 9.9 nM.

For the compound `CCCC[C@H]1C(=O)N(C)[C@@H](CCCC)C(=O)N[C@@H](CC(C)C)C(=O)N[C@H](C(=O)NCC(=O)N[C@@H](CC(=O)O)C(=O)N[C@@H](CCC(=O)NCCCOCCOCCOCCCNC(=O)CC[C@H](NC(=O)CCCCCCCCCCCCCCC(=O)O)C(=O)O)C(=O)O)CSCC(=O)N[C@@H](Cc2ccc(O)cc2)C(=O)N(C)[C@@H](C)C(=O)N[C@@H](CC(N)=O)C(=O)N2CCC[C@H]2C(=O)N[C@@H](CN)C(=O)N[C@@H](CC(C)C)C(=O)N2C[C@H](O)C[C@H]2C(=O)N[C@@H](Cc2c[nH]c3ccccc23)C(=O)N[C@@H](CCN)C(=O)N[C@@H](Cc2cn(CC(=O)O)c3ccccc23)C(=O)N1C` [Example 11170] ({CH2CO}-Y[NMeA]NP[Dap]L[Hyp]W[Dab][Trp(1-CH2COOH)][NMeNle][NMeNle]LCGDE(X13)-OH; thioether N-14), the IC50 lay in the range of 0.3 to 9.9 nM.

For `CCCC[C@H]1C(=O)N(C)[C@@H](CCCC)C(=O)N[C@@H](CC(C)C)C(=O)N[C@H](C(=O)N(C)CC(=O)NCCCOCCOCCOCCCNC(=O)CC[C@H](NC(=O)CCCCCCCCCCCCCCC(=O)O)C(=O)O)CSCC(=O)N[C@@H](Cc2ccc(O)cc2)C(=O)N(C)[C@@H](C)C(=O)N[C@@H](CC(N)=O)C(=O)N2CCC[C@H]2C(=O)N[C@@H](CN)C(=O)N[C@@H](CC(C)C)C(=O)N2C[C@H](O)C[C@H]2C(=O)N[C@@H](Cc2c[nH]c3ccccc23)C(=O)N[C@@H](CCN)C(=O)N[C@@H](Cc2cn(CC(=O)O)c3ccccc23)C(=O)N1C` [Example 11171] ({CH2CO}-Y[NMeA]NP[Dap]L[Hyp]W[Dab][Trp(1-CH2COOH)][NMeNle][NMeNle]LC[Sar]-X13; thioether N-14), the IC50 is 0.3 to 9.9 nM.

Take `CCCC[C@H]1C(=O)N(C)[C@@H](CCCC)C(=O)N[C@@H](CC(C)C)C(=O)N[C@H](C(=O)NCC(=O)N[C@@H](CC(=O)NC[C@H](NC(=O)CCCCCCCCCCCCCCCCC(=O)O)C(=O)O)C(=O)O)CSCC(=O)N[C@@H](Cc2ccc(O)cc2)C(=O)N(C)[C@@H](C)C(=O)N[C@@H](CC(N)=O)C(=O)N2CCC[C@H]2C(=O)N[C@@H](CN)C(=O)N[C@@H](CC(C)C)C(=O)N2C[C@H](O)C[C@H]2C(=O)N[C@@H](Cc2c[nH]c3ccccc23)C(=O)N[C@@H](CCN)C(=O)N[C@@H](Cc2cn(CC(=O)O)c3ccccc23)C(=O)N1C` [Example 11172] ({CH2CO}-Y[NMeA]NP[Dap]L[Hyp]W[Dab][Trp(1-CH2COOH)][NMeNle][NMeNle]LCGD(Dap(Nα-HOOC(CH2)16CO)OH)-OH; thioether N-14): the IC50 lay within 10 to 99 nM.
